US8613950B2, “Pharmaceutical forms with improved pharmacokinetic properties” (Bayer Intellectual Property GmbH, priority 2005, dated 2013)
Counter-ions that a name gives are not always drawn.

Key:
[1] = cited from earlier work
[2] = Solubility of the vardenafil form employed in 10 ml of physiological saline at 25° C.; assay type: physicochemical
Text: Accordingly, the present invention provides a vardenafil-comprising drug formulation, which is characterized in that the solubility of the form of vardenafil employed in a small amount of aqueous liquid is sufficiently high and the dissolution rate of the formulation disintegrating in the mouth is sufficiently rapid.

| amount of the active compound form that dissolves in 10 ml of physiological saline ([2]; 10 ml physiological saline, amount offered = tablet dose corresponding to 10 mg of vardenafil, hydrochloride trihydrate) | dissolved amount expressed as vardenafil ([2]; 10 ml physiological saline, dose 11.85 mg vardenafil hydrochloride trihydrate) [mg] | share of the active compound employed that dissolves in 10 ml of physiological saline ([2]; dose 5.93 mg vardenafil hydrochloride trihydrate (5 mg vardenafil)) [%] | share of the dose of the active compound employed that dissolves in 10 ml of physiological saline ([2]; dose corresponding to 10 mg of vardenafil, hydrochloride trihydrate) [%] | Compound | bioavailability ([1]; known property of vardenafil, oral) | time after administration at which the rapid decrease in the plasma concentration occurs ([1]; oral administration of vardenafil) |
| --- | --- | --- | --- | --- | --- | --- |
| – | – | – | – | CCCc1nc(C)c2c(=O)[nH]c(-c3cc(S(=O)(=O)N4CCN(CC)CC4)ccc3OCC)nn12 [vardenafil] | about 14% | about 1 hour |
| about 10.4 mg | 8.8 | 91 | 88 | CCCc1nc(C)c2c(=O)[nH]c(-c3cc(S(=O)(=O)N4CCN(CC)CC4)ccc3OCC)nn12 [vardenafil hydrochloride trihydrate] | – | – |
